Consider 24 compounds from US20030134859A1 (SANKYO COMPANY, LIMITED, priority 2000, published 2003).

In experiment [1] the test system is human colon cancer cells COL-2-JCK. The experiment can be described thus: Inhibition of colony forming activity in human colon cancer cells. The format is cell-based. The note with it: 1 μM test compound, 10 days, sum of colony areas vs control; for inhibition at 1 µM: Homo sapiens, 240 h, read-out: Inhibition Rate (%) against the colony forming activity. A digest of the protocol:
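COL-2-JCK cells seeded at 300 cells/well and grown 10 days at 37 °C, 5% CO2 with compound at 1 μM final (0.1% DMSO). Colonies stained with crystal violet in formalin; inhibition % = (1 − treated/control colony area)×100.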

The next experiment deals with Balb/c mice. The experiment can be described thus: Prevention of concanavalin A liver injury. The format is in vivo, mouse. To be noted: 10 mg/mL suspension at 10 mL/kg, 30 min prior to Con A, plasma 24 hr after Con A; for inhibition in vivo at 10000 µg/mL, 100 mg/kg: Mus musculus, po, 24 h. A digest of the protocol:
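Female Balb/c mice, 6-8 weeks, 5/group; compound suspended at 10 mg/mL in 0.5% CMC, given orally at 10 mL/kg 30 min before i.v. Con A (2.0 mg/mL, 10 mL/kg). Plasma AST and ALT measured 24 hr after Con A; inhibitory rate calculated against vehicle and untreated groups.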

Where [2] appears, read: read-out: Preventing rate against liver injury, ALT (%).
Where [3] appears, read: read-out: Preventing rate against liver injury, AST (%).

Where a name gives a salt, the structure may show the parent alone. Read-outs that look alike come from different tables or passages of the source.

Broadly, the inhibition is the share of the control response that was lost under treatment. On to `O=C(Nc1ccc(-c2ccc([N+](=O)[O-])cc2)cc1)c1cc([N+](=O)[O-])ccc1Cl` [Example 9, N-[4-(4-Nitrophenyl)phenyl)-(2-chloro-5-nitrophenyl)carboxamide], for which, in experiment [1], the inhibition at 1 µM was 29%. As for `CCCc1ccc(NC(=O)c2cc([N+](=O)[O-])ccc2Cl)cc1` [Example 15, N-(4-Propylphenyl)-(2-chloro-5-nitrophenyl)carboxamide], the results for the inhibition in vivo at 10000 µg/mL, 100 mg/kg in the experiment on Balb/c mice (setting [2]) and in the experiment with Balb/c mice (setting [3]) were 39% and 54%, respectively. The inhibition at 1 µM in experiment [1] was found to be 14%. For the compound `O=C(Nc1ccc(OC(F)(F)F)cc1)c1cc([N+](=O)[O-])ccc1Cl` [Example 18, N-(4-Trifluoromethyloxyphenyl)-(2-chloro-5-nitrophenyl)carboxamide], the inhibition in vivo at 10000 µg/mL, 100 mg/kg with Balb/c mice (setting [2]) was 39.8%; with Balb/c mice (setting [3]) it was 24.1%.

As for `Cc1ccc(S(=O)(=O)Nc2ccc(NC(=O)c3cc([N+](=O)[O-])ccc3Cl)cc2)cc1` [Example 32, N-[4-(4-Methylbenzene)sulfonylaminophenyl]-(2-chloro-5-nitrophenyl)carboxamide], the “Inhibition Rate (%) against the colony forming activity” value in experiment [1] turned out to be 39.0%. For the compound `O=C(Nc1nc2ccc([N+](=O)[O-])cc2s1)c1cc([N+](=O)[O-])ccc1Cl` [Example 34, N-(6-Nitrobenzothiazol-2-yl)-(2-chloro-5-nitrophenyl)carboxamide], the inhibition at 1 µM in experiment [1] was found to be 41%. Turning to `O=C(Nc1ccncc1)c1cc([N+](=O)[O-])ccc1Cl` [Example 49, N-(4-Pyridyl)-(2-chloro-5-nitrophenyl)carboxamide], the inhibition in vivo at 10000 µg/mL, 100 mg/kg worked out at 59% in the experiment on Balb/c mice (setting [2]) and 61% in the experiment with Balb/c mice (setting [3]). For the compound `O=C(Nc1cnc2ccccc2c1)c1cc([N+](=O)[O-])ccc1Cl` [Example 55, N-(3-Quinolinyl)-(2-chloro-5-nitrophenyl)carboxamide], the inhibition at 1 µM in experiment [1] turned out to be 8%. Turning to `O=C(Nc1nccc2ccccc12)c1cc([N+](=O)[O-])ccc1Cl` [Example 59, N-(Isoquinolin-1-yl)-(2-chloro-5-nitrophenyl)carboxamide], the values for the inhibition in vivo at 10000 µg/mL, 100 mg/kg with Balb/c mice (setting [2]) and in the experiment on Balb/c mice (setting [3]) were 18.7% and 20.5%, respectively. In experiment [1], the inhibition at 1 µM came out at 94%. Consider `O=C(Nc1nc2cc(Cl)ccc2o1)c1cc([N+](=O)[O-])ccc1Cl` [Example 75, N-(5-Chlorobenzoxazol-2-yl)-(2-chloro-5-nitrophenyl)carboxamide], for which the inhibition at 1 µM in experiment [1] was found to be 65%.

Regarding `O=C(Nc1ncc(Br)cn1)c1cc([N+](=O)[O-])ccc1Cl` [Example 77, N-(5-Bromopyrimidin-2-yl)-(2-chloro-5-nitrophenyl)carboxamide], the inhibition at 1 µM in experiment [1] turned out to be 1%. Turning to `Nc1ccc(-c2ccc(NC(=O)c3cc([N+](=O)[O-])ccc3Cl)cc2)cc1` [Example 88, N-[4-(4-Aminophenyl)phenyl]-(2-chloro-5-nitrophenyl)carboxamide mono-hydrochloride], the figures for the inhibition in vivo at 10000 µg/mL, 100 mg/kg in the experiment with Balb/c mice (setting [2]) and in the experiment with Balb/c mice (setting [3]) were 42.3% and 57%, respectively. In experiment [1], the inhibition at 1 µM was 8%. On to `Cc1c(C)c2c(c(C)c1O)C(=O)CC(C)(COc1ccc(NC(=O)c3cc([N+](=O)[O-])ccc3Cl)cc1)O2` (stereo not shown) [Example 92, N-[4-(6-Hydroxy-2,5,7,8-tetramethyl-4-oxochroman-2-ylmethoxy)phenyl]-(2-chloro-5-nitrophenyl)carboxamide], for which the inhibition at 1 µM in experiment [1] was found to be 15%. For `CS(=O)(=O)Nc1ccc(-c2ccc(NC(=O)c3cc([N+](=O)[O-])ccc3Cl)cc2)cc1` [Example 93, N-[4-[4-(Methanesulfonylamino)phenyl]phenyl]-(2-chloro-5-nitrophenyl)carboxamide], the inhibition at 1 µM in experiment [1] came out at 44%. `Cc1nnc(NS(=O)(=O)c2ccc(NC(=O)c3cc([N+](=O)[O-])ccc3Cl)cc2)s1` [Example 101, N-[4-[(5-Methyl-[1,3,4]thiadiazol-2-yl)aminosulfonyl]phenyl]-(2-chloro-5-nitrophenyl)carboxamide]: in experiment [1], the inhibition at 1 µM was 32%. Turning to `Cc1noc(NS(=O)(=O)c2ccc(NC(=O)c3cc([N+](=O)[O-])ccc3Cl)cc2)c1C` [Example 104, N-[4-[(3,4-Dimethylisoxazol-6-yl)aminosulfonyl]phenyl]-(2-chloro-5-nitrophenyl)carboxamide], the inhibition at 1 µM in experiment [1] came out at 22%. `O=C(Nc1ccc(N2CCCCC2)cc1)c1cc([N+](=O)[O-])ccc1Cl` [Example 114, N-[4-(Piperidin-1-yl)phenyl]-(2-chloro-5-nitrophenyl)carboxamide]: the inhibition in vivo at 10000 µg/mL, 100 mg/kg came out at 32.8% with Balb/c mice (setting [2]) and 50.5% in the experiment with Balb/c mice (setting [3]). The inhibition at 1 µM in experiment [1] turned out to be 22%. On to `CC(=O)Nc1ccc(-c2ccc(NC(=O)c3cc([N+](=O)[O-])ccc3Cl)cc2)cc1` [Example 118, N-[4-(4-Acetylaminophenyl)phenyl]-(2-chloro-5-nitrophenyl)carboxamide], for which the figures for the inhibition in vivo at 10000 µg/mL, 100 mg/kg with Balb/c mice (setting [2]) and with Balb/c mice (setting [3]) were 55.8% and 45%, respectively. For the same compound, the inhibition at 1 µM in experiment [1] was 41%. As to `O=C(Nc1ccc(-c2ccc(NC(=O)c3cc([N+](=O)[O-])ccc3Cl)cc2)cc1)c1ccccc1` [Example 120, N-[4-(4-Benzoylaminophenyl)phenyl]-(2-chloro-5-nitrophenyl)carboxamide], the inhibition at 1 µM in experiment [1] came out at 44%. With `Cc1ccc2nc(NC(=O)c3cc([N+](=O)[O-])ccc3Cl)sc2c1` [Example 141, N-(6-Methybenzothiazol-2-yl)-(2-chloro-5-nitrophenyl)carboxamide], the “Inhibition Rate (%) against the colony forming activity” value in experiment [1] worked out at 47.0%. Consider `CCc1ccc(S(=O)(=O)Nc2ccc(NC(=O)c3cc([N+](=O)[O-])ccc3Cl)cc2)cc1` [Example 150, N-[4-(4-Ethylbenzenesulfonylamino)phenyl]-(2-chloro-5-nitrophenyl)carboxamide], for which the inhibition at 1 µM in experiment [1] is 41%. On to `CC(=O)c1cccc(NC(=O)c2cc([N+](=O)[O-])ccc2Cl)c1` [Example 156, N-(3-Acetylphenyl)-(2-chloro-5-nitrophenyl)carboxamide], for which the inhibition in vivo at 10000 µg/mL, 100 mg/kg in the experiment on Balb/c mice (setting [2]) was determined as 85.5%; in the experiment on Balb/c mice (setting [3]) it was 82.6%. On to `O=C(Nc1ccc(C(=O)N2CCCCC2)cc1)c1cc([N+](=O)[O-])ccc1Cl` [Example 159, N-[4-(Piperidylcarbonyl)phenyl]-(2-chloro-5-nitrophenyl)carboxamide], for which the figures for the inhibition in vivo at 10000 µg/mL, 100 mg/kg in the experiment on Balb/c mice (setting [2]) and in the experiment with Balb/c mice (setting [3]) were 78.7% and 91.2%, respectively. In the same order, the values of `CC(C)(C)c1cc(NS(=O)(=O)c2cccc(NC(=O)c3cc([N+](=O)[O-])ccc3Cl)c2)cc(C(C)(C)C)c1O` [Example 161, N-[3-[(3,5-di-tert-Butyl-4-hydroxyphenyl)aminosulfonyl]phenyl]-(2-chloro-5-nitrophenyl)carboxamide] are 82.8% and 69.3%.

In the case of “N-[4-[4-(Pyrrolidin-1-ylamino)phenyl]phenyl]-(2-chloro-5-nitrophenyl)carboxamide [Example 171]”, in the experiment on Balb/c mice (oral), the “Preventing rate against liver injury, ALT (%)” value is 90.0% and the “Preventing rate against liver injury, AST (%)” value stood at 102.8%.
